# Experimental data reported in patent publication US12667567B2, “Method of preventing blast-induced loss of cochlear and vestibular hair cells and auditory spiral ganglion neurons” (Therapeutic Vision, Inc., priority 2024, dated 2026).
# Values joined by “and” are separate entries in the source; they are usually repeats but may differ in a detail not shown here. Identical values can stand only once. “Also recorded” adds a separate entry of the source.
# Columns and labels:
# [1] = tested on: vestibular hair cells in the crista of the ampulla; test: Vestibular hair cell density in crista ampullae of semicircular canals after blast; type: in vivo, rat
# Procedure: Blast wave exposure. All rats were exposed to 6 blasts presented once every 5 minutes using equipment and procedures similar to those previously described. (See Manohar, S., et al., Blast-induced hearing loss suppresses hippocampal neurogenesis and disrupts long term spatial memory. Hear Res, 2020. 395: p. 108022; Stachowiak, M. K., et al., Neurogenesis and Oligodendrogenesis in a Mouse Model of Blast-Induced Traumatic Brain Injury. Neurology and Neurobiology, 2020: p. 1-14; and Newman, A. J., et al., Low-cost blast wave generator for studies of hearing loss and brain injury: blast wave effects in closed spaces. J Neurosci Methods, 2015. 242: p. 82-92.) Each rat was anesthetized with an intraperitoneal injection of ketamine (50 mg/kg) and xylazine (6 mg/kg) and stable anesthesia was maintained with supplementary half-doses of anesthetics as needed to maintain a stable anesthetic state. Each anesthetized rat was placed in a wire-mesh cage 5 cm with the snout of the rat facing the front of the blast tube opening. The average blast peak pressure level was 186 dB peak SPL (±0.8 dB, SEM, ~39.9 kPa). […]
# HK-2 synthesis and administration. HK-2 was synthesized and evaluated for purity (>99%) as described previously. […] Based on the rat's daily food consumption, measured every 2 days together with body weight, the average oral consumption of HK-2 was ~50 mg/kg/day. […]
# [2] = tested on: spiral ganglion neurons (SGN); test: Blast-induced loss of spiral ganglion neurons in Rosenthal's canal; type: in vivo, rat; settings: for mean number of SGN per section: middle of basal turn, ~25 kHz
# Procedure: (§1) Blast wave exposure. All rats were exposed to 6 blasts presented once every 5 minutes using equipment and procedures similar to those previously described. (See Manohar, S., et al., Blast-induced hearing loss suppresses hippocampal neurogenesis and disrupts long term spatial memory. Hear Res, 2020. 395: p. 108022; Stachowiak, M. K., et al., Neurogenesis and Oligodendrogenesis in a Mouse Model of Blast-Induced Traumatic Brain Injury. Neurology and Neurobiology, 2020: p. 1-14; and Newman, A. J., et al., Low-cost blast wave generator for studies of hearing loss and brain injury: blast wave effects in closed spaces. J Neurosci Methods, 2015. 242: p. 82-92.) Each rat was anesthetized with an intraperitoneal injection of ketamine (50 mg/kg) and xylazine (6 mg/kg) and stable anesthesia was maintained with supplementary half-doses of anesthetics as needed to maintain a stable anesthetic state. Each anesthetized rat was placed in a wire-mesh cage 5 cm with the snout of the rat facing the front of the blast tube opening. The average blast peak pressure level was 186 dB peak SPL (±0.8 dB, SEM, ~39.9 kPa). The intensity was selected based on our prior study in which we found no evidence of tympanic membrane or ossicular damage in rats exposed at 188 dB pSPL (Newman, A. J. et al.), consistent with an earlier report. (Roberto, M., R. P. Hamernik, and G. A. Turrentine, Damage of the auditory system associated with acute blast trauma. Ann Otol Rhinol Laryngol Suppl, 1989. 140: p. 23-34)
# (§2) Experimental groups. The rats were divided into four groups (n=6/group): (1) Blast alone (B), (2) Blast plus earplugs (BEP), (3) Blast plus HK-2 (BHK-2) and (4) Blast plus earplugs plus HK-2 (BEPHK-2). All rats had free access to water and standard lab chow except for the BHK-2 and BEPHK-2 groups that also received HK-2 as noted below.
# (§3) HK-2 synthesis and administration. HK-2 was synthesized and evaluated for purity (>99%) as described previously. (Kawada, H. and P. F. Kador, Orally Bioavailable Metal Chelators and Radical Scavengers: Multifunctional Antioxidants for the Coadjutant Treatment of Neurodegenerative Diseases. J Med Chem, 2015. 58(22): p. 8796-805; U.S. Pat. No. 8,877,766 B2) Rats in the BHK-2 group and BEPHK-2 group were fed the same standard laboratory rat chow as the other two groups, however, the chow had been treated with HK-2 as described previously. […] Based on the rat's daily food consumption, measured every 2 days together with body weight, the average oral consumption of HK-2 was ~50 mg/kg/day. […]
# [3] = tested on: outer hair cells (OHC); test: Blast-induced outer hair cell loss, cochleogram; type: in vivo, rat
# Procedure: as §1, §2
# (§4) HK-2 synthesis and administration. HK-2 was synthesized and evaluated for purity (>99%) as described previously. (Kawada, H. and P. F. Kador, Orally Bioavailable Metal Chelators and Radical Scavengers: Multifunctional Antioxidants for the Coadjutant Treatment of Neurodegenerative Diseases. J Med Chem, 2015. 58(22): p. 8796-805; U.S. Pat. No. 8,877,766 B2) Rats in the BHK-2 group and BEPHK-2 group were fed the same standard laboratory rat chow as the other two groups, however, the chow had been treated with HK-2 as described previously. (Chen, G. D., et al.; Manohar, S., et al., Combined antioxidants and anti-inflammatory therapies fail to attenuate the early and late phases of cyclodextrin-induced cochlear damage and hearing loss. Hear Res, 2022. 414: p. 108409.) HK-2 treated food was administered to rats starting 7-days prior to the blast wave exposure and continuing for 30-days following exposure. Based on the rat's daily food consumption, measured every 2 days together with body weight, the average oral consumption of HK-2 was ~50 mg/kg/day. (Id.)
# (§5) Tissue preparation. Approximately 60-days after the blast wave exposure, the rats from all four groups were deeply anesthetized with ketamine (50 mg/kg, i.p.) and xylazine (6 mg/kg, i.p.) and decapitated. The temporal bones were quickly removed. Under a dissection microscope, openings were made in the cochlear apex, round window, and the oval window. […]
# [4] = tested on: vestibular hair cells in the saccule; test: Vestibular hair cell density in macula of the saccule after blast; type: in vivo, rat
# Procedure: as §1, §2, §4, §5
# [5] = tested on: vestibular hair cells in the utricle; test: Vestibular hair cell density in macula of the utricle after blast; type: in vivo, rat
# Procedure: as §1, §2, §3
# [6] = tested on: noise-induced hearing loss and outer hair cell loss; settings: 95 dB SPL octave band noise, 8 h/d for 21 days; HK-2 before, during and after the exposure; cited from earlier work
# [7] = tested on: auditory nerve fibers (ANF); test: Blast-induced loss of auditory nerve fibers in habenula perforata; type: in vivo, rat; settings: for mean number of ANF/habenula perforata: middle of basal turn, ~25 kHz
# Procedure: as §1, §2, §3
# [8] = tested on: inner hair cells (IHC); test: Blast-induced inner hair cell loss, cochleogram; type: in vivo, rat
# Procedure: as §1, §2, §4, §5
# [9] = BEPHK-2 group (earplugs plus HK-2)
# [10] = BHK-2 group, no blast-induced loss in this region
# [11] = HK-2 oral 50 mg/kg/d, 60 d post-exposure, 50 mg/kg/day
# [12] = BHK-2 group, 6 blasts 186 dB peak SPL, HK-2 oral 50 mg/kg/d from 7 d before to 30 d after blast, 60 d post-exposure, 50 mg/kg/day
structure (smiles),measurement,setting,value
"O=C1CCC(=O)N1c1ncc(O)cn1 [HK-2, 1-(5-hydroxypyrimidin-2-yl) pyrrolidine-2,5-dione]","mean hair cell density, crista of the ampulla of the three semicircular canals",[1]; [9],122.8 /0.0108 mm^2
same,"mean hair cell density, crista of the ampulla of the three semicircular canals",[1]; [10],121.8 /0.0108 mm^2
same,mean number of SGN per section,[2]; [9],41.8 SGN per section
same,mean number of SGN per section,"[2]; BHK-2 group, B group ~9",42.3 SGN per section
same,protection against blast-induced SGN loss (in words),[2]; [11],completely prevented; also recorded: significant protection
same,increase of SGN versus blast alone,"[2]; HK-2 treatment, 25 kHz region",~ 3.7 fold
same,OHC loss less than in BEP group,"[3]; BEPHK-2 group (earplugs plus HK-2), extreme base",about 10%
same,reduction of total OHC loss compared to B group,[3]; [12],67% and ~ 67%
same,mean OHC loss,"[3]; BHK-2 group, 10% location (distance from apex)",10%
same,mean OHC loss,"[3]; BHK-2 group, 70% location (distance from apex)",~ 39%
same,mean OHC loss,"[3]; BHK-2 group, high-frequency base of the cochlea",~ 76%
same,"mean hair cell density, marginal region of the saccule",[4]; [9],123.0 /0.0108 mm^2
same,"mean vestibular hair cell density, striola of the saccule",[4]; [9],112.0 hair cell/0.0108 mm^2
same,"mean vestibular hair cell density, striola of the saccule","[4]; BHK-2 group, B group 71.83",102.7 hair cell/0.0108 mm^2
same,"mean hair cell density, marginal region of the saccule",[4]; [10],122.2 /0.0108 mm^2
same,protection against blast-induced saccule (striola) hair cell loss (in words),[4]; [11],completely prevented; also recorded: restored hair cell densities to normal levels; also recorded: significant protection
same,"mean hair cell density, marginal region of the macula of the utricle",[5]; [9],122.8 /0.0108 mm^2
same,"mean hair cell density, striola region of the macula of the utricle",[5]; [9],111.3 /0.0108 mm^2
same,"mean hair cell density, marginal region of the macula of the utricle",[5]; [10],122.7 /0.0108 mm^2
same,"mean hair cell density, striola region of the macula of the utricle",[5]; [10],111.0 /0.0108 mm^2
same,hearing loss and hair cell loss after noise exposure (in words),[6],significantly reduced in a dose-dependent manner
same,mean number of ANF/habenula perforata,[7]; [9],82.8 ANF/habenula perforata
same,mean number of ANF/habenula perforata,"[7]; BHK-2 group, B group ~9.2",84.2 ANF/habenula perforata
same,protection against blast-induced ANF loss (in words),[7]; [11],completely prevented; also recorded: complete protection
same,increase of ANF versus blast alone,"[7]; HK-2 treatment, 25 kHz region",~ 8 fold
same,IHC loss,"[8]; BEPHK-2 group (earplugs plus HK-2; range stated jointly with BEP group), base of the cochlea",14-19%
same,reduction of total IHC loss compared to B group,[8]; [12],57% and ~ 57.3% and ~ 57%
same,mean IHC loss,"[8]; BHK-2 group, middle of the cochlea",~ 20
same,mean IHC loss,"[8]; BHK-2 group, near the apex",0%
same,mean IHC loss,"[8]; BHK-2 group, near the base of the cochlea",~ 67%
